Read-outs that look alike come from different tables or passages of the source.
Key:
5-HT2B = 5-HT2B (Homo sapiens, UniProt P41595); assay: Calcium flux (FLIPR) assay, human 5-HT2B stably expressed in HEK-293 (Flp-In-293) cells; settings: for Emax, % 5-HT 5-HT2B: normalized to 5-HT
human 5-HT2C-INI = target: T1, human 5-HT2C-INI (Homo sapiens, UniProt P28335); assay: Calcium flux (FLIPR) assay, human 5-HT2C-INI stably expressed in HEK-293 (Flp-In-293) cells; settings: human 5-HT2C-INI in HEK-293 cells, FLIPR; for EC50: NA = no activity at 10 μM; for Emax, % 5-HT 5-HT2C: normalized to 5-HT
T1 sequence (P28335 33-458): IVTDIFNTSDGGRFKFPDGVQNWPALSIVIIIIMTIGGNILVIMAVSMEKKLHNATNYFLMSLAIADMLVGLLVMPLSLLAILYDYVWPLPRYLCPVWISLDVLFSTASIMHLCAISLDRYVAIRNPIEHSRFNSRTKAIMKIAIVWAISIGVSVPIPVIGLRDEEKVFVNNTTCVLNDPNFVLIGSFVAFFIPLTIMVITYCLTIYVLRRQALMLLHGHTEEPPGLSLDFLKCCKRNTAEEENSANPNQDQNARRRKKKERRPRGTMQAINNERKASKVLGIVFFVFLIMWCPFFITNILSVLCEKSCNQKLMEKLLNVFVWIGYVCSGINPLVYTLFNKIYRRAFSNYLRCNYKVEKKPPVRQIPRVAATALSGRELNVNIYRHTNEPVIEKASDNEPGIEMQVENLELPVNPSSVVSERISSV

5-HT2A = 5-HT2A (Homo sapiens, UniProt P28223); assay: Calcium flux (FLIPR) assay, human 5-HT2A stably expressed in HEK-293 (Flp-In-293) cells; settings: for Emax, % 5-HT 5-HT2A: normalized to 5-HT
Sequence of 5-HT2A (P28223 whole entry): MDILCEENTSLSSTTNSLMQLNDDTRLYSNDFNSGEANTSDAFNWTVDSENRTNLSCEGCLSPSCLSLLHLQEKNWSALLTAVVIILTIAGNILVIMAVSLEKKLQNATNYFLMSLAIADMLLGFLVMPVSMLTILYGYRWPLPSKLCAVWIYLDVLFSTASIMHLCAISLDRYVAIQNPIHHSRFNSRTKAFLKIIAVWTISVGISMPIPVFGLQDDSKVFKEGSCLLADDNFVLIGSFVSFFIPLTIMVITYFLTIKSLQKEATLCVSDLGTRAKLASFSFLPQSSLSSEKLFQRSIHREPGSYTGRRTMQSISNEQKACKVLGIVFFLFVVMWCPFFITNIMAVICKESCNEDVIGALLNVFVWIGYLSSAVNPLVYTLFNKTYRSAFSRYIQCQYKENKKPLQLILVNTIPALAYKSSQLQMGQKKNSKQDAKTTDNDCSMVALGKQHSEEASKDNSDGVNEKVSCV

[1] = EC50, nM 5-HT2B, human 5-HT2B in HEK-293 cells, NA = no activity at 10 μM
[2] = read-out: EC50, nM 5-HT2B, human 5-HT2B in HEK-293 cells, NA = no activity at 10 μM
[3] = human 5-HT2A in HEK-293 cells, FLIPR
[4] = read-out: EC50, nM 5-HT2A, human 5-HT2A in HEK-293 cells, FLIPR, NA = no activity at 10 μM
[5] = EC50, nM 5-HT2A, human 5-HT2A in HEK-293 cells, FLIPR, NA = no activity at 10 μM

Sequence of 5-HT2B (P41595 whole entry): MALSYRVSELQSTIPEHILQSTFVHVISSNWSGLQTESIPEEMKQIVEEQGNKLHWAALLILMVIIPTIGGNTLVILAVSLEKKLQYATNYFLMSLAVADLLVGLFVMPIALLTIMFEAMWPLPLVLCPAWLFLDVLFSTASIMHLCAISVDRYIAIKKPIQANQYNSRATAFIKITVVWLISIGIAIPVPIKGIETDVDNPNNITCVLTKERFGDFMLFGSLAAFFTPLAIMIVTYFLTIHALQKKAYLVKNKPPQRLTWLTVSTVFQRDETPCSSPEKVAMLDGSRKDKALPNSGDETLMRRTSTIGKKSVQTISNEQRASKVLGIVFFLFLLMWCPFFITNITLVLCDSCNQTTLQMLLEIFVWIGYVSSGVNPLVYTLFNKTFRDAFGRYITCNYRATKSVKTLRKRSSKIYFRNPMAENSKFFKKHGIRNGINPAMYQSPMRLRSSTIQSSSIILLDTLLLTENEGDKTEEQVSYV

Row | SMILES | EC50 (5-HT2B; [1]) | Emax, % 5-HT 5-HT2B (5-HT2B; human 5-HT2B in HEK-293 cells) | EC50 (human 5-HT2C-INI; EC50, nM 5-HT2C) | Emax, % 5-HT 5-HT2C (human 5-HT2C-INI) | EC50 (5-HT2A) | EC50 (5-HT2B; [2]) | EC50 (human 5-HT2C-INI; read-out: EC50, nM 5-HT2C) | Emax, % 5-HT 5-HT2A (5-HT2A; [3]) | EC50 (5-HT2A; [4]) | EC50 (5-HT2A; [5])
1 | NCC1CC1c1cc(Cl)c(Cl)cc1OCCF (single isomer, unassigned; (+)) [(+)-Example 34, (+)-(2-(4,5-Dichloro-2-(2-fluoroethoxy)phenyl)cyclopropyl)methanamine] | 15400 nM | (40%) % 5-HT | 18 nM | (87%) % 5-HT | 92 nM |  |  |  |  | 
2 | COc1ccc(F)c(F)c1C1CC1CN (single isomer, unassigned; (-)) [(−)-Example 45, (−)-(2-(2,3-Difluoro-6-methoxyphenyl)cyclopropyl)methanamine] |  | (62%) % 5-HT |  | (108%) % 5-HT |  | 462 nM | 16 nM | (72%) % 5-HT | 461 nM | 
3 | NCC1CC1c1cc(Cl)ccc1OCC(F)F (single isomer, unassigned; (+)) [(+)-Example 21, (+)-(2-(5-Chloro-2-(2,2-difluoroethoxy)phenyl)cyclopropyl)methanamine] | 839 nM | (27%) % 5-HT | 91 nM | (81%) % 5-HT |  |  |  | (31%) % 5-HT |  | 1810 nM
4 | COc1cc(F)c(Cl)cc1[C@@H]1C[C@H]1CN (single isomer, unassigned) [(−)-Example 1, (−)-(2-(5-Chloro-4-fluoro-2-methoxyphenyl)cyclopropyl)methanamine] | 329 nM | (44%) % 5-HT | 16 nM | (99%) % 5-HT |  |  |  | (88%) % 5-HT |  | 235 nM
5 | NCC1CC1c1c(OCCF)ccc(Cl)c1Cl (single isomer, unassigned; (+)) [(+)-Example 38, (+)-(2-(2,3-Dichloro-6-(2-fluoroethoxy)phenyl)cyclopropyl)methanamine] | 5520 nM | (99%) % 5-HT | 232 nM | (90%) % 5-HT | 949 nM |  |  | (22%) % 5-HT |  | 
6 | CCOc1ccc(Cl)c(F)c1C1CC1CN (single isomer, unassigned; (-)) [(−)-Example 30, (−)-(2-(3-Chloro-6-ethoxy-2-fluorophenyl)cyclopropyl)methanamine] | 7420 nM | (51%) % 5-HT | 97 nM | (90%) % 5-HT |  |  |  | (31%) % 5-HT |  | 819 nM
7 | CCOc1ccc(F)c(F)c1C1CC1CN (single isomer, unassigned; (-)) [(−)-Example 46, (−)-(2-(6-Ethoxy-2,3-difluorophenyl)cyclopropyl)methanamine] | 4270 nM | (30%) % 5-HT | 83 nM | (99%) % 5-HT |  |  |  | (18%) % 5-HT |  | 2150 nM
8 | CCOc1ccc(F)c(F)c1C1CC1CN (single isomer, unassigned; (+)) [(+)-Example 46, (+)-(2-(6-Ethoxy-2,3-difluorophenyl)cyclopropyl)methanamine] | 288 nM | (48%) % 5-HT | 7.2 nM | (107%) % 5-HT |  |  |  | (57%) % 5-HT |  | 1160 nM
9 | CCOc1ccc(F)c(Cl)c1C1CC1CN (single isomer, unassigned; (+)) [(+)-Example 51, (+)-(2-(2-Chloro-6-ethoxy-3-fluorophenyl)cyclopropyl)methanamine] | 760 nM | (56%) % 5-HT | 22 nM | (15%) % 5-HT |  |  |  | (47%) % 5-HT |  | 761 nM
10 | COc1cc(Cl)c(Cl)cc1C1CC1CN (single isomer, unassigned; (+)) [(+)-Example 33, (+)-(2-(4,5-Dichloro-2-methoxyphenyl)cyclopropyl)methanamine] |  |  |  | (95%) % 5-HT |  | 31 nM | 9.7 nM | (85%) % 5-HT | 21 nM | 
